Experimental data from patent US20210085630A1, “PHARMACEUTICAL COMPOSITION AND USE THEREOF IN PREPARING DRUG FOR TREATING TUMOR MULTI-DRUG RESISTANCE” (SICHUAN JIUZHANG BIOLOGICAL SCIENCE AND TECHNOLOGY CO., LTD., priority 2018, published 2021).
Converted amounts (≈) assume the structure as drawn. Counter-ions that a name gives are not always drawn. Marks after values point to notes of the source that are not given here. One block for each molecule: values may come before it.

Key:
[1] = tested on: CD4+T and CD8+T lymphocytes; experiment: Number of CD4+T and CD8+T lymphocytes in transplanted tumor of multidrug-resistant Lewis lung cancer mice; type: in vivo; settings: average of 6 high power fields
Procedure: (§1) The number of CD4+T and CD8+T lymphocytes was analyzed by immunofluorescence staining, and the average number of CD4+T and CD8+T cells infiltrated in 6 high power fields was counted.

[2] = tested on: multi-drug resistant Lewis lung cancer; experiment: Tumor weight and inhibition rate, transplanted multi-drug resistant Lewis lung cancer; type: in vivo, mice; settings: for Tumor weight / Tumor-inhibition rate (%): multi-drug resistant Lewis lung cancer mice, test drug 30 mg/kg i.p. 5 days, then gemcitabine 300 mg/kg or dacarbazine 60 mg/kg every other day
Procedure: Lewis lung cancer cell lines were induced by the increased gradient concentration of dacarbazine and gemcitabine, and established by clone screening, then cultured without drug before the experiment.
(§2) After the drug was removed from the drug-resistant cell lines, the cell concentration was adjusted to 1×10^7/ml with the culture medium. 1×10^7/ml of cells were subcutaneously injected into the right armpit of mice, 0.1 ml per mouse.
(§3) After the average diameter of tumor reached […], the mice were randomly divided into test drug group 1, test drug group 2, test drug group 3, test drug group 4, test drug group 5, test drug group 6, positive drug group, and negative group, respectively.
(§4) Test drug group: the test drug group was first intraperitoneally injected, once a day, 30 mg/kg/time, for 5 consecutive days; administration was stopped, and the positive drug was given by intraperitoneal injection on the next day; wherein the positive drug dacarbazine was administrated once every other day, 60 mg/kg/time; wherein the positive drug gemcitabine was given once every other day, 300 mg/kg/time.
(§5) Positive drug group: positive drug dacarbazine was given once every other day, 60 mg/kg/time; positive drug gemcitabine was given once every other day, 300 mg/kg/time.
(§6) Negative group: normal saline was intraperitoneally injected, once a day, for 15 consecutive days.
(§7) After completion of administration, the experiment was stopped, and the mice were killed by cervical dislocation and weighed. The tumor was stripped and weighed, to calculate the tumor inhibition rate.

[3] = tested on: drug-resistant A375 melanoma cell lines; experiment: MTT: IC50 of dacarbazine against drug-resistant A375 cells and drug-resistant index; type: cell-based, human
Procedure: A375 melanoma cell lines were exposed to dacarbazine (400 μg/ml) for 3 months, and centrifuged, to culture dacarbazine-resistant A375 cells. The cells were observed every day, and taken through 3 passages for about 3 days, to ensure cell viability.
(§8) Above-mentioned cell lines and drug-resistant cell lines in the logarithmic growth phase were selected, the cell concentration was adjusted to 8×10^3 cells/well, and then cells were seeded in a 96-well plate. For the experiment, there were three groups: blank group, control group and dacarbazine group. In the blank group, only medium was added, without inoculating cells; in the control group, medium was added, and cells were inoculated; in the dacarbazine group, medium was added, cells were inoculated, and then dacarbazine was added at different concentrations. The plates were placed in an incubator and incubated for 48 h, then 5 mg/ml MTT (20 μl) was added to each well, and the plate was further incubated for 4 h.
Drug-resistant index=IC50 value of drug-resistant cells/IC50 value of sensitive cells

PD-1/PD-L1 [4] = experiment: PD-1/PD-L1 expression rate (immunohistochemical SP method), drug-resistant B16 melanoma tumor tissue; type: in vivo; settings: transplanted tumor tissues of drug-resistant B16 melanoma in mice, Example 3 regimen
Text: (§9) The positive expression rate of PD-1/PD-L1 in tumor tissues was detected by immunohistochemical SP method.

PD-1/PD-L1 [5] = experiment: PD-1/PD-L1 expression rate in transplanted tumor tissues, multidrug resistance model; type: in vivo; settings: transplanted tumor tissues of B16 melanoma mice with multidrug resistance (as titled), Example 5 regimen
Text: as §9

[6] = tested on: dacarbazine-resistant B16 melanoma; experiment: Tumor weight and inhibition rate, transplanted dacarbazine-resistant B16 melanoma; type: in vivo; settings: dacarbazine-resistant B16 melanoma mice; test drug 30 mg/kg i.p. once a day 5 days, then dacarbazine 60 mg/kg every other day; positive drug dacarbazine 60 mg/kg
Procedure: B16 melanoma cell lines were induced by the increased gradient concentration of dacarbazine, and established by clone screening and cultured without drug before the experiment.
as §2, §3, §4, §5, §6, §7

[7] = tested on: CD4+T and CD8+T lymphocytes; experiment: Number of CD4+T and CD8+T cells (immunofluorescence), drug-resistant B16 melanoma transplanted tumor; type: in vivo; settings: transplanted tumor of drug-resistant B16 melanoma in mice, average of 6 high power fields
Procedure: as §1

[8] = tested on: CD4+T and CD8+T lymphocytes; experiment: Number of CD4+T and CD8+T cells (immunofluorescence), drug-resistant Lewis lung cancer transplanted tumor; type: in vivo; settings: transplanted tumor of drug-resistant Lewis lung cancer in mice, average of 6 high power fields
Procedure: as §1

[9] = tested on: drug-resistant A549 lung cancer cell lines; experiment: MTT: IC50 of gemcitabine against drug-resistant A549 cells and drug-resistant index; type: cell-based, human
Procedure: A549 lung cancer cell lines were exposed to gemcitabine (2000 μg/ml) for 3 months, and centrifuged, to culture gemcitabine-resistant A549 cells. The cells were observed every day, and taken through 3 passages for about 3 days, to ensure cell viability.
as §8, with “gemcitabine” for “dacarbazine”, “h. […] Drug-resistant index=IC50 value of drug-resistant cells/IC50 value of sensitive cells” for “h.”

[10] = tested on: gemcitabine-resistant Lewis lung cancer; experiment: Tumor weight and inhibition rate, transplanted gemcitabine-resistant Lewis lung cancer; type: in vivo; settings: gemcitabine-resistant Lewis lung cancer mice; test drug 30 mg/kg i.p. once a day 5 days, then gemcitabine 300 mg/kg every other day; positive drug gemcitabine 300 mg/kg
Procedure: Lewis lung cancer cell lines were induced by the increased gradient concentration of gemcitabine, and established by clone screening and cultured without drug before the experiment.
as §2, §3, §4, §5, §6, §7

PD-1/PD-L1 [11] = experiment: PD-1/PD-L1 expression rate (immunohistochemical SP method), drug-resistant Lewis lung cancer tumor tissue; type: in vivo; settings: transplanted tumor tissues of drug-resistant Lewis lung cancer in mice, Example 3 regimen
Text: as §9

[12] = tested on: Opdivo-resistant Lewis lung cancer; experiment: Antitumor effect (tumor volume, weight, inhibition rate) in Opdivo-resistant Lewis lung cancer mice; type: in vivo
Procedure: (§10) The concentration of cell lines was adjusted to 1×10^7/ml with the culture medium. 1×10^7/ml of cells were subcutaneously injected into the right armpit of mice, 0.1 ml per mouse.
(§11) The model mice were randomly divided into groups, eight for one group, and included test drug group 1, test drug group 2, test drug group 3, test drug group 4, positive drug Opdivo group, single drug chlorogenic acid group, test drug 1+Opdivo group, test drug 2+Opdivo group, test drug 3+Opdivo group, test drug 4+Opdivo group, and negative group, respectively.
(§12) Test drug group: from the second day after stopping administration to the model, the group received drug by intraperitoneal injection, once a day, 30 mg/kg.
(§13) Single drug group: from the second day after stopping administration to the model, the group received drug by intraperitoneal injection, once a day, 30 mg/kg.
(§14) Test drug+Opdivo group: from the second day after stopping administration to the model, the group received the test drug by intraperitoneal injection, once a day, and the test drug was stopped after administrating for 5 consecutive days; on the next day, Opdivo was intraperitoneally injected, once every other day, with the dosage of 30 mg/kg.
(§15) Positive drug group: once every other day, 30 mg/kg.
(§16) Negative group: normal saline was intraperitoneally injected, once a day, the same amount of saline.
(§17) Before each administration, the tumor volume was measured, and the experiment was stopped when the average tumor volume of negative group was greater than 1.5 cm^3.
as §7

[13] = tested on: Opdivo-resistant B16 melanoma; experiment: Antitumor effect (tumor volume, weight, inhibition rate) in Opdivo-resistant B16 melanoma mice; type: in vivo
Procedure: as §10, §11, §12, §13, §14, §15, §16, §17, §7

[14] = tested on: Lewis lung cancer cell lines; experiment: Establishment of Opdivo-resistant tumor model, tumor volume over time, Lewis lung cancer; type: in vivo; settings: Lewis lung cancer mice, Opdivo 30 mg/kg i.p. every other day
Procedure: as §10

PD-1/PD-L1 [15] = experiment: PD-1/PD-L1 expression rate in tumor tissues of Opdivo-resistant B16 melanoma mice; type: in vivo; settings: tumor tissues of drug-resistant (Opdivo) B16 melanoma mice
Text: as §9

B16 melanoma cell lines = experiment: Establishment of Opdivo-resistant tumor model, tumor volume over time, B16 melanoma; type: in vivo; settings: B16 melanoma mice, Opdivo 30 mg/kg i.p. every other day
Procedure: as §10

PD-1/PD-L1 [16] = experiment: PD-1/PD-L1 expression rate in tumor tissues of Opdivo-resistant Lewis lung cancer mice; type: in vivo; settings: tumor tissues of drug-resistant (Opdivo) Lewis lung cancer mice
Text: as §9

[17] = tested on: CD4+T and CD8+T lymphocytes; experiment: Number of CD4+T and CD8+T cells in Opdivo-resistant Lewis lung cancer mice; type: in vivo; settings: drug-resistant (Opdivo) Lewis lung cancer mice, average of 6 high power fields
Procedure: as §1

[18] = tested on: CD4+T and CD8+T lymphocytes; experiment: Number of CD4+T and CD8+T cells in Opdivo-resistant B16 melanoma mice; type: in vivo; settings: drug-resistant (Opdivo) B16 melanoma mice, average of 6 high power fields
Procedure: as §1

[19] = 30 mg/kg i.p. once a day, + Opdivo groups: test drug 5 days, then Opdivo 30 mg/kg every other day
[20] = 30 mg/kg i.p., + Opdivo groups 30 + 30 mg/kg

- IC50 ([3]; Homo sapiens, A-375, dacarbazine against drug-resistant A375 melanoma cell lines, MTT, 48 h, read-out: IC50 Concentration): 560 µg/mL
Molecule: CN(C)/N=N/c1[nH]cnc1C(N)=O [Dacarbazine, 5-(3,3-dimethyl-1-triazenyl)-4-carboxamideimidazolium citrate, reference compound]
- CD4 + T cells (number) [1]: 74.52 ± 7.38
- CD8 + T cells (number) [1]: 123.74 ± 12.85
- Tumor weight [2]: 2.33 ± 0.52 g
- Tumor-inhibition rate (%) [2]: 1.27%
- Drug-resistant index ([3]; IC50 of drug-resistant cells/IC50 of sensitive cells, A375): 6.22
- Expression rate of PD-1/PD-L1, Positive PD-L1 (PD-1/PD-L1 [4]): 72.51%
- Expression rate of PD-1/PD-L1, Positive PD-L1 (PD-1/PD-L1 [5]): 72.51%
- Tumor inhibition rate (%) [6]: 4.55%
- Tumor weight [6]: 2.52 ± 0.77 g
- CD4 + T cells (number) [7]: 63.67 ± 5.83
- CD8 + T cells (number) [7]: 91.23 ± 3.84

- IC50 ([9]; Homo sapiens, gemcitabine against drug-resistant A549 lung cancer cell lines, MTT, 48 h, read-out: IC50 Concentration): 3620 µg/mL (≈ 13.8 mM)
Molecule: Nc1ccn([C@@H]2O[C@H](CO)[C@@H](O)C2(F)F)c(=O)n1 [Gemcitabine, gemcitabine, reference compound]
- CD4 + T cells (number) [1]: 77.69 ± 8.96
- CD8 + T cells (number) [1]: 121.08 ± 10.32
- CD4 + T cells (number) [8]: 82.16 ± 1.42
- CD8 + T cells (number) [8]: 112.53 ± 4.28
- Tumor weight [2]: 2.27 ± 0.38 g
- Tumor-inhibition rate (%) [2]: 3.81%
- inhibitory effect on the tumor (in words) ([2]; multidrug-resistant Lewis lung cancer mice, positive drug groups): don't have obvious inhibitory effect
- Expression rate of PD-1/PD-L1, Positive PD-L1 (PD-1/PD-L1 [5]): 74.35%
- Drug-resistant index ([9]; IC50 of drug-resistant cells/IC50 of sensitive cells, A549): 4.63
- Tumor inhibitory rate (%) [10]: 5.24%
- Tumor weight (g) [10]: 2.17 ± 0.89 ^ g
- Expression rate of PD-1/PD-L1, Positive PD-L1 (PD-1/PD-L1 [11]): 78.93%

Molecule: Opdivo: human programmed death receptor-1 (PD-1) blocking antibody; PD-1 inhibitor
- continuous treatment effect / effect on tumor volume control (in words) [12]: not obvious
- Tumor volume (cm^3) [12, 19]: 1.616 ± 0.772 cm^3
- Tumor inhibition rate (%) [12, 20]: 2.38%
- Tumor weight [12, 20]: 2.52 ± 0.83 g
- continuous treatment effect / effect on tumor volume control (in words) [13]: not obvious
- Tumor volume (cm^3) [13, 19]: 1.793 ± 0.842 cm^3
- Tumor inhition rate (%) [13, 20]: 1.41%
- Tumor weight [13, 20]: 2.79 ± 1.13 g
- Tumor volume, Model group (cm^3) ([14]; 4 d after inoculation): 0.00 ± 0.000 ** cm^3
- Tumor volume, Model group (cm^3) ([14]; 6 d after inoculation): 0.073 ± 0.052* cm^3
- Tumor volume, Model group (cm^3) ([14]; 8 d after inoculation): 0.098 ± 0.075** cm^3
- Tumor volume, Model group (cm^3) ([14]; 10 d after inoculation): 0.121 ± 0.101** cm^3
- Tumor volume, Model group (cm^3) ([14]; 12 d after inoculation): 0.164 ± 0.084** cm^3
- Tumor volume, Model group (cm^3) ([14]; 14 d after inoculation): 0.226 ± 0.113** cm^3
- Tumor volume, Model group (cm^3) ([14]; 16 d after inoculation): 0.464 ± 0.154* cm^3
- Tumor volume, Model group (cm^3) ([14]; 18 d after inoculation): 0.984 ± 0.236 cm^3
- Expression rate of PD-1/PD-L1, Positive PD-L1 (PD-1/PD-L1 [15]): 85.87%
- Tumor volume, Model group (cm^3) (B16 melanoma cell lines; 2 d after inoculation): 0.00 ± 0.000 ** cm^3
- Tumor volume, Model group (cm^3) (B16 melanoma cell lines; 4 d after inoculation): 0.084 ± 0.047 ** cm^3
- Tumor volume, Model group (cm^3) (B16 melanoma cell lines; 6 d after inoculation): 0.106 ± 0.043 ** cm^3
- Tumor volume, Model group (cm^3) (B16 melanoma cell lines; 8 d after inoculation): 0.128 ± 0.062 ** cm^3
- Tumor volume, Model group (cm^3) (B16 melanoma cell lines; 10 d after inoculation): 0.179 ± 0.147 ** cm^3
- Tumor volume, Model group (cm^3) (B16 melanoma cell lines; 12 d after inoculation): 0.286 ± 0.116 ** cm^3
- Tumor volume, Model group (cm^3) (B16 melanoma cell lines; 14 d after inoculation): 0.881 ± 0.204 cm^3
- Expression rate of PD-1/PD-L1, Positive PD-L1 (PD-1/PD-L1 [16]): 72.77%
- CD4 + T cells (number) [17]: 64.22 ± 7.74
- CD8 + T cells (number) [17]: 117.81 ± 7.99
- CD4 + T cells (number) [18]: 74.63 ± 6.35
- CD8 + T cells (number) [18]: 88.61 ± 5.82
